Measurements: PubChem BioAssay (NCI)
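Five concentrations, 48 hours, 96-well plates. GI50 = concentration required for 50% inhibition of growth. TGI is the concentration that stops growth completely.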

Tests used:
Test in all cases: NCI-60 cell line screen, 48 h
M14 melanoma = test system: M14 melanoma
SK-MEL-2 melanoma = test system: SK-MEL-2 melanoma
A549 NSCLC = test system: A549 NSCLC
HOP-62 NSCLC = test system: HOP-62 NSCLC
LOX IMVI melanoma = test system: LOX IMVI melanoma
SK-MEL-5 melanoma = test system: SK-MEL-5 melanoma
OVCAR-3 ovarian = test system: OVCAR-3 ovarian
KM20L2 colon = test system: KM20L2 colon
KM12 colon = test system: KM12 colon
CAKI-1 renal = test system: CAKI-1 renal
OVCAR-8 ovarian = test system: OVCAR-8 ovarian
UACC-257 melanoma = test system: UACC-257 melanoma
MOLT-4 leukemia = test system: MOLT-4 leukemia
TK-10 renal = test system: TK-10 renal
EKVX NSCLC = test system: EKVX NSCLC
OVCAR-5 ovarian = test system: OVCAR-5 ovarian
NCI-H522 lung = test system: NCI-H522 lung
K-562 leukemia = test system: K-562 leukemia
U251 CNS = test system: U251 CNS
SK-OV-3 ovarian = test system: SK-OV-3 ovarian
HL-60(TB) leukemia = test system: HL-60(TB) leukemia
NCI-H460 lung = test system: NCI-H460 lung
SW-620 colon = test system: SW-620 colon
IGROV1 ovarian = test system: IGROV1 ovarian
SF-268 CNS = test system: SF-268 CNS
HOP-92 NSCLC = test system: HOP-92 NSCLC
RXF 393 renal = test system: RXF 393 renal
HCT-116 colon = test system: HCT-116 colon
UO-31 renal = test system: UO-31 renal
SF-539 CNS = test system: SF-539 CNS
SR leukemia = test system: SR leukemia
HT29 colon = test system: HT29 colon
ACHN renal = test system: ACHN renal
OVCAR-4 ovarian = test system: OVCAR-4 ovarian
UACC-62 melanoma = test system: UACC-62 melanoma
SF-295 CNS = test system: SF-295 CNS
CCRF-CEM leukemia = test system: CCRF-CEM leukemia
HCT-15 colon = test system: HCT-15 colon
NCI-H226 lung = test system: NCI-H226 lung
SNB-19 CNS = test system: SNB-19 CNS
HCC-2998 colon = test system: HCC-2998 colon

## O=C(N/N=C/c1cc(Br)cc(Br)c1[O-])c1ccccc1O.O=C(N/N=C/c1cc(Br)cc(Br)c1[O-])c1ccccc1O.[Cl-].[Fe+3]
M14 melanoma
  TGI: 9.96 µM
SK-MEL-2 melanoma
  TGI: 5.43 µM
A549 NSCLC
  TGI: 36.8 µM
HOP-62 NSCLC
  TGI: 5.48 µM
LOX IMVI melanoma
  TGI: 15.5 µM
SK-MEL-5 melanoma
  TGI: 12.3 µM
OVCAR-3 ovarian
  TGI: 12.8 µM
KM20L2 colon
  TGI: 13.9 µM
KM12 colon
  TGI: 81.6 µM
CAKI-1 renal
  TGI: 18.2 µM
OVCAR-8 ovarian
  TGI: 33.4 µM
UACC-257 melanoma
  TGI: 29.3 µM
MOLT-4 leukemia
  TGI: > 100 µM
TK-10 renal
  TGI: 20 µM
EKVX NSCLC
  TGI: 27.8 µM
OVCAR-5 ovarian
  TGI: 7.61 µM
NCI-H522 lung
  TGI: 4.56 µM
K-562 leukemia
  GI50: 2.59 µM
  TGI: 5.63 µM
U251 CNS
  TGI: 4.91 µM
SK-OV-3 ovarian
  TGI: 7.22 µM
HL-60(TB) leukemia
  TGI: 6.54 µM
NCI-H460 lung
  TGI: 17.7 µM
SW-620 colon
  TGI: 14 µM
IGROV1 ovarian
  TGI: 30.6 µM
SF-268 CNS
  TGI: 33.1 µM
HOP-92 NSCLC
  TGI: 6.12 µM
RXF 393 renal
  TGI: 6.39 µM
HCT-116 colon
  TGI: 10.2 µM
UO-31 renal
  TGI: 20.7 µM
SF-539 CNS
  TGI: 5.35 µM
SR leukemia
  TGI: 5.68 µM
HT29 colon
  TGI: 13.2 µM
ACHN renal
  TGI: 18.3 µM
OVCAR-4 ovarian
  TGI: 8.24 µM
UACC-62 melanoma
  TGI: 7.99 µM
SF-295 CNS
  TGI: 5.98 µM
CCRF-CEM leukemia
  GI50: 38.6 µM
  TGI: > 100 µM
HCT-15 colon
  TGI: 3.84 µM
NCI-H226 lung
  TGI: 4.97 µM
SNB-19 CNS
  TGI: 21.3 µM
HCC-2998 colon
  TGI: 5.65 µM
